Reference: US10556865B2, “Synergistic herbicidal composition containing certain pyridine or pyrimidine carboxylic acids and certain cereal and rice herbicides” (Dow AgroSciences, LLC, priority 2007, dated 2020)
“And” between values parts separate entries of the source, which are not always exact repeats. Identical values can stand only once.

Columns and labels:
Assay type in all cases: in vivo
[1] = tested on: Brachiaria platyphylla (BRISEB.) NASH (BRAPP); experiment: Postemergence herbicidal mixtures for weed control in direct seeded rice (greenhouse, visual % injury)
[2] = tested on: Cyperus esculentus L. (CYPES); experiment: as above; settings: CYPES
Cyperus iria L. (CYPIR) = experiment: as above; settings: CYPIR
[3] = tested on: Scirpus maritimus L. (SCPMA); experiment: as above; settings: for % Injury Ob: SCPMA
[4] = tested on: Fimbristylis miliacea (L.) VAHL (FIMMI); experiment: as above; settings: for % Injury Ob: FIMMI
Cyperus species (CYPSS) = experiment: Herbicidal mixtures for weed control in transplanted paddy rice (in-water application, visual % injury); settings: CYPES = Cyperus esculentus
Protocol: (§1) Weed seeds or nutlets of the desired test plant species were planted in puddled soil (mud) prepared by mixing a non-sterilized mineral soil (28 percent silt, 18 percent clay, and 54 percent sand, with a pH of about 7.3 to 7.8 and an organic matter content of about 1.0 percent) and water at a ratio of 100 kilograms (kg) of soil to 19 L of water. The prepared mud was dispensed in 250 mL aliquots into 480 mL non-perforated plastic pots with a surface area of 91.6 square centimeters leaving a headspace of 3 centimeters in each pot. Rice seeds were planted in Sun Gro MetroMix® 306 planting mixture, which typically has a pH of 6.0 to 6.8 and an organic matter content of about 30 percent, in plastic plug trays. Seedlings at the second or third leaf stage of growth were transplanted into 650 mL of mud contained in 960 mL non-perforated plastic pots with a surface area of 91.6 cm^2 4 days prior to herbicide application. The paddy was created by filling the 3 centimeter headspace of the pots with water. When required to ensure good germination and healthy plants, a fungicide treatment and/or other chemical or physical treatment was applied. The plants were grown for 4-14 days in a greenhouse with an approximate 14 hr photoperiod which was maintained at about 29° C. during the day and 26° C. during the night. Nutrients were added as Osmocote (17:6:10, N:P:K+minor nutrients) at 2 g per cup. Water was added on a regular basis to maintain the paddy flood, and supplemental lighting was provided with overhead metal halide 1000-Watt lamps as necessary. The plants were employed for testing when they reached the second or third true leaf stage.
(§2) Treatments consisted of esters or salts of compound A, compound C, or compound D and various herbicidal components alone and in combination. For technical grade compounds, a weighed amount, determined by the highest rate to be tested, was placed in an individual 120 mL glass vial and was dissolved in 20 mL of acetone to obtain concentrated stock solutions. […] The concentrated stock solutions obtained were diluted with 20 mL of an aqueous mixture containing 2.5% Agri-dex crop oil concentrate (v/v). For formulated compounds, a measured amount, determined by the highest rate to be tested, was placed in an individual 120 mL glass vial and was dissolved in 20 mL of 2.5% (v/v) Agri-dex crop oil concentrate to obtain concentrated stock solutions. The concentrated stock solutions obtained were diluted with 20 mL of acetone. Applications were made by injecting an appropriate amount of the stock solution into the aqueous layer of the paddy. Control plants were treated in the same manner with the solvent blank. All treated plant material received the same concentration of acetone and crop oil concentrate.
(§3) Forms of compounds A, C, and D were applied on an acid equivalent basis. Other herbicidal components were applied on an active ingredient basis and included acetolactate synthase (ALS)-inhibiting herbicides penoxsulam (triazolopyrimidine chemical class) applied as Grasp SC, […] (sulfonylurea chemical class) applied as Sirius G, and bensulfuron-methyl (sulfonylurea chemical class) applied as Londax; acetyl CoA carboxylase (ACCase) inhibiting herbicides cyhalofop-butyl applied as Clincher G and fenoxaprop-p-ethyl applied as Ricestar HT; auxinic herbicide quinclorac applied as Facet 75 DF; phytoene desaturase inhibiting herbicide norflurazon; and p-hydroxyphenylpyruvate dioxygenase (HPPD) inhibiting herbicide sulcotrione applied as Mikado.
(§4) The treated plants and control plants were placed in a greenhouse as described above and water was added as needed to maintain a paddy flood. After 3 weeks the condition of the test plants as compared with that of the untreated plants was determined visually and scored on a scale of 0 to 100 percent where 0 corresponds to no injury and 100 corresponds to complete kill.

[5] = tested on: blackgrass (Alopecurus myosuroides L; ALOMY); experiment: Postemergence herbicidal activity of mixtures in cereal crops (greenhouse, visual injury 0-100 percent after 20-22 days); settings: 2.5 g/ha
Protocol: (§5) Seeds of the desired test plant species were planted in Sun Gro MetroMix® 306 planting mixture, which typically has a pH of 6.0 to 6.8 and an organic matter content of about 30 percent, in plastic pots with a surface area of 103.2 square centimeters (cm^2). […] The plants were grown for 7-36 days in a greenhouse with an approximate 14 hour photoperiod which was maintained at about 18° C. during the day and 17° C. during the night. Nutrients and water were added on a regular basis and supplemental lighting was provided with overhead metal halide 1000-Watt lamps as necessary. The plants were employed for testing when they reached the second or third true leaf stage.
(§6) Treatments consisted of compound (as listed in Tables 1 through 64) and a second cereal herbicide alone and in combination. […] The concentrated stock solutions were diluted to 1.5 mg ai/mL with the addition of 2 volumes of an aqueous mixture containing acetone, water, isopropyl alcohol, DMSO, Agri-dex crop oil concentrate, and Triton® X-77 surfactant in a 64.7:26.0:6.7:2.0:0.7:0.01 v/v ratio. A dilution solution was prepared by mixing 1 volume of 97:3 v/v acetone/DMSO and 2 volumes of an aqueous mixture containing acetone, water, isopropyl alcohol, DMSO, Agri-dex crop oil concentrate, and Triton® X-77 surfactant in a 64.7:26.0:6.7:2.0:0.7:0.01 v/v ratio. Compound requirements are based upon a 12 mL application volume at a rate of 187 liters per hectare (L/ha). […] Formulated compounds were applied to the plant material with an overhead Mandel track sprayer equipped with 8002E nozzles calibrated to deliver 187 L/ha over an application area of 0.503 square meters (m^2) at a spray height of 18 inches […] above average plant canopy. Control plants were sprayed in the same manner with the solvent blank.
as §4, with “watered by sub-irrigation” for “water was added as needed”, “prevent wash-off of the test compounds.” for “maintain a paddy flood.”, “20-22 days,” for “3 weeks”, “control” for “untreated”
(§7) Colby's equation was used to determine the herbicidal effects expected from the mixtures (Colby, S. R. 1967. Calculation of the synergistic and antagonistic response of herbicide combinations. Weeds 15:20-22.).
(§8) The following equation was used to calculate the expected activity of mixtures containing two active ingredients, A and B: Expected=A+B−(A×B/100)

[6] = tested on: wild oats (Avena fatua L; AVEFA); experiment: Postemergence herbicidal activity of mixtures in cereal crops (greenhouse, visual injury); settings: 2.5 g/ha, Table 14
Protocol: as §5, §6
as §4, with “watered by sub-irrigation” for “water was added as needed”, “prevent wash-off of the test compounds.” for “maintain a paddy flood.”, “20-22 days,” for “3 weeks”, “control” for “untreated”
as §7, §8

[7] = tested on: windgrass (Apera spica-venti L; APESV); experiment: as above; settings: Apera spica-venti, post-emergence, 2.5 g/ha, Table 14; read-out: APESV Ob
Protocol: as §5, §6
as §4, with “watered by sub-irrigation” for “water was added as needed”, “prevent wash-off of the test compounds.” for “maintain a paddy flood.”, “20-22 days,” for “3 weeks”, “control” for “untreated”
as §7, §8

[8] = tested on: Italian ryegrass (Lolium multiflorum L; LOLMU); experiment: as above; settings: 2.5 g/ha, Table 14
Method in brief: (§9)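 Visual injury, 0 = none to 100 = complete kill, rated 20–22 d after treatment versus solvent-sprayed controls. Applications were track-sprayer postemergence at 187 L/ha, at the 2nd–3rd true leaf stage, of Compound A or B esters/salts alone and in two- and three-way mixes with a second cereal herbicide. Expected mixture activity via Colby.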

[9] = tested on: green foxtail (Setaria viridis L; SETVI); experiment: as above; settings: 2.5 g/ha, Table 7
Method in brief: as §9

[10] = tested on: Canada thistle (Cirsium arvense L; CIRAR); experiment: as above; settings: 3.75 g/ha
Method in brief: (§10)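 Weeds grown in greenhouse (~14 h photoperiod, ~18/17 °C day/night) to second–third true leaf stage, sprayed postemergence with compound and second cereal herbicide alone or combined; solvent-blank controls. Injury scored visually after 20-22 days, 0–100% (complete kill); expected mixture activity = A+B−(A×B/100).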

[11] = tested on: Ischaemum rugosum SALISB. (ISCRU); experiment: Postemergence herbicidal mixtures for weed control in direct seeded rice (greenhouse, visual % injury); settings: ISCRU
[12] = tested on: chickweed (Stellaria media L; STEME); experiment: Postemergence herbicidal activity of mixtures in cereal crops (greenhouse, visual injury); settings: 70 g/ha alone
Method in brief: as §9

[13] = tested on: lady's-thumb (Polygonum persicaria L; POLPE); experiment: as above; settings: 70 g/ha alone
Method in brief: as §9

[14] = tested on: wild buckwheat (Polygonum convolvulus L; POLCO); experiment: as above; settings: 70 g/ha alone
Method in brief: as §9

[15] = tested on: bird's-eye speedwell (Veronica persica L; VERPE); experiment: as above; settings: 70 g/ha alone
Method in brief: as §10

[16] = tested on: wild pansy (Viola tricolor L; VIOTR); experiment: as above; settings: 70 g/ha alone
Method in brief: as §10

[17] = tested on: Polygonum pensylvanicum L. (POLPY); experiment: Postemergence herbicidal mixtures for weed control in direct seeded rice (greenhouse, visual % injury); settings: for % Injury Ob: POLPY
[18] = tested on: Fimbristylis miliacea (L.) VAHL (FIMMI); experiment: Herbicidal mixtures for weed control in transplanted paddy rice (in-water application, visual % injury); settings: 35 g/ha alone
Protocol: as §1, with “When required to ensure good germination and healthy plants, a fungicide treatment and/or other chemical or physical treatment was applied.” left out
as §2, §3, §4

Scirpus species (SCPSS) = experiment: as above; settings: SCPJU; 35 g/ha alone
Protocol: as §1, with “When required to ensure good germination and healthy plants, a fungicide treatment and/or other chemical or physical treatment was applied.” left out
as §2, §3, §4

## CNc1cnn(-c2cccc(C(F)(F)F)c2)c(=O)c1Cl [Norflurazon]
[1]; 70 g/ha alone
  % Injury Ob: 0%
[2]; 560 g/ha alone
  % Injury Ob: 0%
Cyperus iria L. (CYPIR); 560 g/ha alone
  % Injury Ob: 0%
[3]; 560 g/ha alone
  % Injury Ob: 60%
[4]; 560 g/ha alone
  % Injury Ob: 0%
Cyperus species (CYPSS); Norflurazon 70 g/ha alone (Compound A Methyl half)
  % Injury CYPES Ob: 0%
Cyperus species (CYPSS); Norflurazon 70 g/ha alone (Compound A TEA half)
  % Injury CYPES Ob: 0%

## COc1nc(C)nc(NC(=O)NS(=O)(=O)c2cc(I)ccc2C(=O)O)n1 [Iodosulfuron, 4-iodo-2-[[[[(4-methoxy-6-methyl-1,3,5-triazin-2-yl)amino]carbonyl]amino]sulfonyl]benzoic acid, reference compound]
[5]; Table 7
  ALOMY Ob: 50%
[5]; Table 14
  ALOMY Ob: 50%
[6]
  AVEFA Ob: 35%
[7]
  pest or weed control at 2.5 g/ha: 68%
[8]
  LOLMU Ob: 53%
[9]
  SETVI Ob: 0%
[10]
  CIRAR Ob: 50%

## CCCCC(CC)COC(=O)COc1ccc(Cl)cc1C (stereo not drawn) [MCPA EHE]
[11]; 70 g/ha alone
  % Injury Ob: 0%
[11]; 140 g/ha alone
  % Injury Ob: 0%
[1]; 70 g/ha alone
  % Injury Ob: 0%
[1]; 140 g/ha alone
  % Injury Ob: 0%
[4]; 70 g/ha alone
  % Injury Ob: 0%
[4]; 140 g/ha alone
  % Injury Ob: 0%

## Cc1cc(Cl)ccc1OCC(=O)O [MCPA]
[12]
  STEME Ob: 7%
[13]
  POLPE Ob: 23%
[14]
  POLCO Ob: 7%
[15]
  VERPE Ob: 10%
[16]
  VIOTR Ob: 17%

## CCOC(=O)[C@@H](C)Oc1ccc(Oc2nc3ccc(Cl)cc3o2)cc1 [Fenoxaprop-p-ethyl]
[17]; alone 35 g/ha
  % Injury POLPY Ob: 0%
[3]; alone 35 g/ha
  % Injury SCPMA Ob: 0%
[4]; alone 35 g/ha
  % Injury FIMMI Ob: 0%
[18]
  % Injury Ob: 0%
Scirpus species (SCPSS)
  % Injury Ob: 0%

## C=CCOC(=O)c1nc(-c2ccc(Cl)c(OC)c2F)cc(N)c1Cl [Compound A Allyl]
[17]; 17.5 g/ha alone
  % Injury Ob: 90%
[17]; 35 g/ha alone
  % Injury Ob: 70%
[17]; alone 17.5 g/ha
  % Injury POLPY Ob: 70%
[11]; 8.75 g/ha alone
  % Injury Ob: 10%
[11]; 17.5 g/ha alone
  % Injury Ob: 40%
[1]; 4.38 g/ha alone
  % Injury Ob: 80%
[1]; 8.75 g/ha alone
  % Injury Ob: 60% and 80% and 100%
[1]; 17.5 g/ha alone
  % Injury Ob: 99%
[2]; 17.5 g/ha alone
  % Injury Ob: 50%
[2]; 35 g/ha alone
  % Injury Ob: 95%
Cyperus iria L. (CYPIR); 17.5 g/ha alone
  % Injury Ob: 35%
Cyperus iria L. (CYPIR); 35 g/ha alone
  % Injury Ob: 85%
[3]; 17.5 g/ha alone
  % Injury Ob: 10%
[3]; 35 g/ha alone
  % Injury Ob: 20%
[3]; alone 17.5 g/ha
  % Injury SCPMA Ob: 0%
[4]; 8.75 g/ha alone
  % Injury Ob: 0%
[4]; 35 g/ha alone
  % Injury Ob: 60%
[4]; alone 17.5 g/ha
  % Injury FIMMI Ob: 40%
